# Measured values published in paper PMC7586386, “Discovery of Covalent Inhibitors Targeting the Transcriptional Enhanced Associate Domain Central Pocket” (Journal of Medicinal Chemistry, 2020).
# What was measured:
# [1] = target: TEAD central pocket; design: method as in PMID 26592798; details: read-out: ITC Kd; cited from earlier work
# [2] = target: T1, hTEAD4 (nonacylated) (Homo sapiens, UniProt Q15561); experiment: Thiol conjugation assay (CPM probe); assay type: binding; details: for Inhibition of the CPM fluorescence signal increase: assay validation with known central pocket binders; for fold reduction of TEAD binding in the thiol conjugation assay: relative to 19
# T1 construct: N-terminal His6-tagged hTEAD4^217–434 was subcloned; made in house; host or cells: Escherichia coli BL21-CodonPlus (DE3)-RIPL
# Procedure: To serially diluted solutions of the tested compounds in 5 μL of assay buffer [HEPES (25 mM) and NaCl (150 mM) pH 6.5], freshly prepared 5 μL of 0.45 μM protein solution was added and incubated at room temperature for 10 min, followed by addition of 5 μL of 0.45 μM CPM solution, giving a 15 μL final assay volume, 150 nM protein, and 150 nM CPM. The assay plate was shaken at room temperature for 1 h before measuring the fluorescence (Ex/Em: 380/470 nm). Compound 19 was used as an internal standard to determine 100% inhibition.
# A library of 14,000 compounds was screened in 1536-well plates using pH 6.5 MES buffer. To the preincubated solution of nonacylated hTEAD4 (0.15 μM final concentration) and compound solution (12.5 μM final concentration), CPM (0.15 μM final concentration) was added, and the assay plates were incubated at room temperature for 50 min before measuring the fluorescence (Ex/Em: 360/465 nm) using Spectramax Paradigm (Molecular Devices). Z′ = 0.6–0.8 (10-plates).
# [3] = target: T1, hTEAD4 (nonacylated); experiment: FP-based competitive binding assay with FITC-palmitate tracer; details: relative to 19; for fold increase in the IC50 values: said of the IC50 values of both assays
# Procedure: To serially diluted solution of the tested compounds in 5 μL assay buffer [HEPES (25 mM) and NaCl (150 mM), pH 6.5 buffer], freshly prepared 5 μL of 0.15 μM protein solution was added and incubated at room temperature for 10 min followed by 5 μL of 30 nM FITC-palmitate solution, giving 15 μL final assay volume, 50 nM protein, and 10 nM tracer. The assay plate was shaken at room temperature for 1 h before measuring the FP (Ex/Em: 485/535 nm).
# [4] = target: T1, hTEAD4 (nonacylated); experiment: Differential scanning fluorimetry; assay type: binding; details: 20 μM protein, 80 μM inhibitor
# Procedure: Nonacylated hTEAD4 (20 μM) was incubated in the absence or presence of inhibitors (80 μM) at 25 °C for 10 min. Then, SYPRO orange (Sigma-Aldrich) at a final concentration of 5× was added and the mixture was heated at a ramp rate of 1 °C/min in a qPCR machine (Applied Biosystems). The derivative of the SYPRO orange fluorescent intensity is plotted as a function of temperature.
# [5] = test system: TEAD target gene ANKRD1; experiment: RT-qPCR of TEAD target gene expression in HEK293 cells; assay type: cell-based; details: 6 h
# Procedure: HEK293 cells were treated with DMSO or the indicated compound for the indicated duration. RNA was extracted using the RNeasy Plus Mini Kit (QIAGEN, Hilden, Germany) following the manufacturer’s procedure. DNA was removed on the column by DNase digestion with the RNase-free DNase Set (QIAGEN, Hilden, Germany) according to the manufacturer’s instructions. Following the manufacturer’s protocol, cDNA templates were synthesized from 700 ng total RNA using the QuantiTect Reverse Transcription Kit (QIAGEN, Hilden, Germany).
# The expression levels of the TEAD target gene ANKRD1 was assessed by real-time quantitative PCR. A total of 100 ng of cDNA was amplified using 500 nM gene-specific primers and SsoAdvanced Universal SYBR Green Supermix (Bio-Rad Laboratories, Feldkirchen, Germany) in a total volume of 10 μL for 50 cycles. All measurements were performed in both technical and biological triplicates using a CFX96 Touch Real-Time PCR Detection System (Bio-Rad Laboratories, Feldkirchen, Germany).
# The sequences of primers for ANKRD1 were forward 5′-[…]-3′ and reverse 5′-[…]-3′. The sequences of primers for GAPDH were forward 5′-[…]-3′ and reverse 5′-[…]-3′.
# [6] = Assay media stability (HPLC); assay type: physicochemical; details: MES buffer, pH 6.5, 1 h, rt
# Procedure: The compounds were incubated in MES (25 mM), pH 6.5 buffer or HEPES (25 mM) and NaCl (150 mM) pH 6.5 buffer for an hour at room temperature before injecting into a reverse-phase HPLC system (ThermoScientific_Ultimate 3000) equipped with a C18 column (2/50 Nucleodur C18 gravity 1.8 μm von Macherey-Nagel).
# [7] = target: T1, hTEAD4 (nonacylated); experiment: Whole-protein ESI–MS of covalent modification; assay type: binding; details: 8 equiv of compound, 1 h, rt
# Procedure: The protein solution (1 μL 5 μM) was injected to UPLC-MS (ThermoScientific_UltiMate 3000 LC coupled to a Velos Pro MS) through a desalting column (MassPREP Online desalting, 2.1 × 10 mm). For reactions, 1 μM of the protein was incubated at room temperature for 1 h with 8 equiv of the compound in HEPES (25 mM) and NaCl (150 mM) pH 6.5 buffer. Then, the mixture was centrifuged before injecting 5 μL. The deconvolution of m/z values was performed using Promass Xcalibur software.
# [8] = target: T2, hTEAD4 (nonacylated) with human YAP50–100 (Homo sapiens, UniProt Q15561); experiment: FP-based competitive TEAD–YAP interaction assay (FITC-hYAP50–100); assay type: binding; details: versus 19
# T2 construct: N-terminal His6-tagged hTEAD4^217–434 was subcloned; made in house; host or cells: Escherichia coli BL21-CodonPlus (DE3)-RIPL (TEAD4); solid-phase synthesis (YAP peptide)
# Procedure: All the TEAD–YAP binding experiments were performed in phosphate-buffered saline (PBS) (pH 7.5).
# To serially diluted solution of the tested compounds in 5 μL of PBS, freshly prepared 5 μL of protein solution was added and incubated at room temperature for 10 min followed by addition of 5 μL of FAM-YAP^50–100 solution. The assay plate was shaken at room temperature for 1 h before measuring the FP (Ex/Em: 485/535 nm). Final protein and FAM concentrations are as follows (FAM/protein): hTEAD4 (nonacylated): 2 nM/5 nM, hTEAD4 (acylated): 3 nM/15 nM, mTEAD4_Cys360Ser: 10 nM/50 nM, and mTEAD4_Cys360Ala: 10 nM/50 nM.
# [9] = target: T3, mTEAD4 (nonacylated) (Mus musculus, UniProt Q62296); experiment: 1H–15N HSQC NMR; assay type: binding; details: 0.5 mM compound, versus DMSO
# T3 construct: made in house
# Procedure: The ^13C/^15N-labeled mTEAD4 was prepared following a protocol established earlier,[45] and the protein was deacylated as described above for hTEAD4. ^1H–^15N HSQC spectra in the presence of DMSO or the test compound (0.5 mM) were collected at 37 °C on a Bruker 600 MHz magnet equipped with a cryoprobe in 20 mM HEPES, pH 7.3 buffer containing 150 mM NaCl and 1 mM DTT. The spectra were processed and overlaid.
# [10] = target: T1, hTEAD4 (nonacylated); experiment: Saturation binding of FITC-palmitate (FP); details: 10 nM tracer
# Procedure: To a serially diluted solution of nonacylated hTEAD4 in 12 μL of assay buffer [HEPES (25 mM) and NaCl (150 mM) pH 6.5], 8 μL of 25 nM FITC-palmitate solution was added, giving 20 μL final assay volume with a 10 nM tracer. The assay plate was incubated at room temperature for 1 h before measuring FP (Ex/Em: 485/535 nM).
# [11] = design: method as in PMID 21164073; details: acidic 2-OH group; cited from earlier work
# T1 sequence (Q15561 217-434): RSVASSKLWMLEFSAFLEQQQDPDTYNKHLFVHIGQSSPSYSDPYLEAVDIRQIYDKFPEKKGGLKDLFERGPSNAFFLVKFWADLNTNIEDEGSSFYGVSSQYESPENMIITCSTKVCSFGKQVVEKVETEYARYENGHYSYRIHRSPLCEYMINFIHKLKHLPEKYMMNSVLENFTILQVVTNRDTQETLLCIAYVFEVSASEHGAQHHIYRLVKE
# T2 sequence (Q15561 217-434): as above
# T3 sequence (Q62296 210-427 limits assumed): as the sequence (Q15561 217-434) above, with V3I, Q19R, G35S, A48T, D67E, E91D, S96A, S142L counted along it
structure (smiles),measurement,setting,value
"O=C(O)c1ccccc1Nc1cccc(C(F)(F)F)c1 [Compound 1, flufenamic acid, reference compound]",Kd,[1],73 µM
same,Inhibition of the CPM fluorescence signal increase,[2],inhibited the signal increase in a dose-dependent manner
"O=C(O)c1cccnc1Nc1cccc(C(F)(F)F)c1 [Compound 2, niflumic acid, reference compound]",Kd,[1],28 µM
same,Inhibition of the CPM fluorescence signal increase,[2],inhibited the signal increase in a dose-dependent manner
"O=C(CCl)c1ccccc1Nc1cccc(C(F)(F)F)c1 [Compound 3, reference compound]",Inhibition of the CPM fluorescence signal increase,[2],inhibited the signal increase in a dose-dependent manner
"O=c1cc(CO)oc(C(Nc2ncccn2)c2ccccc2)c1O (stereo not shown) [Compound 26, 3-Hydroxy-6-(hydroxymethyl)-2-(phenyl(pyrimidin-2-ylamino)methyl)-4H-pyran-4-one]",fold increase in the IC50 values,[3],more than 20 fold
"O=c1cc(CO)oc(C(Nc2nccs2)c2ccccc2)c1O (stereo not shown) [Compound 27, 3-Hydroxy-6-(hydroxymethyl)-2-(phenyl(thiazol-2-ylamino)methyl)-4H-pyran-4-one]",fold increase in the IC50 values,[3],more than 20 fold
same,Tm shift,[4],did not induce any change
"O=c1cc(CO)oc(C(Nc2nc3ccccc3[nH]2)c2ccccc2)c1O (stereo not shown) [Compound 28, 2-(((1H-Benzo[d]imidazol-2-yl)amino)(phenyl)methyl)-3-hydroxy-6-(hydroxymethyl)-4H-pyran-4-one]",fold increase in the IC50 values,[3],more than 20 fold
"O=c1cc(CO)oc(C(Nc2ccccc2)C2CCCCC2)c1O (stereo not shown) [Compound 30, 2-(Cyclohexyl(phenylamino)methyl)-3-hydroxy-6-(hydroxymethyl)-4H-pyran-4-one]",fold reduction of TEAD binding in the thiol conjugation assay,[2],100 fold
"CC(C)C(Nc1ccccc1)c1oc(CO)cc(=O)c1O (stereo not shown) [Compound 31, 3-Hydroxy-6-(hydroxymethyl)-2-(2-methyl-1-(phenylamino)propyl)-4H-pyran-4-one]",fold reduction of TEAD binding in the thiol conjugation assay,[2],100 fold
"O=c1cc(CO)oc(CNc2ccccc2)c1O [Compound 32, 3-Hydroxy-6-(hydroxymethyl)-2-((phenylamino)methyl)-4H-pyran-4-one]",fold reduction of TEAD binding in the thiol conjugation assay,[2],100 fold
"O=c1cc(CO)oc(C(Nc2ccccc2)c2ccccn2)c1O (stereo not shown) [Compound 40, 3-Hydroxy-6-(hydroxymethyl)-2-((phenylamino)(pyridin-2-yl)methyl)-4H-pyran-4-one]",fold lowering of inhibitory activity in the FP assay,[3],2–3 fold
"O=c1cc(CO)oc(C(Nc2ccccn2)c2ccc(Br)cc2)c1O (stereo not shown) [Compound 42, 2-((4-Bromophenyl)(pyridin-2-ylamino)methyl)-3-hydroxy-6-(hydroxymethyl)-4H-pyran-4-one]",ΔTm at 80 µM,[4]; read-out: Tm shift,-2 °C
"COc1c(C(Nc2ccccc2)c2ccccc2)oc(CO)cc1=O (stereo not shown) [Compound 45, 6-(Hydroxymethyl)-3-methoxy-2-(phenyl(phenylamino)methyl)-4H-pyran-4-one]",reduction of the mRNA level of ANKRD1 compared to the DMSO control,[5],only a minimal effect
same,stability in assay medium,[6],stable
same,modification of the protein (whole-protein ESI–MS),[7],modification of TEAD was not observed
same,Tm shift,[4],did not induce any change
same,fold lower activity in TEAD–YAP interaction assay,[8],> 100 fold
same,effect on 1H–15N HSQC spectrum,[9],did not induce a significant change
same,activity in the thiol conjugation assay,[2],inactive
"COc1c(C(Nc2ccccn2)c2ccccc2F)oc(CO)cc1=O (stereo not shown) [Compound 46, 2-((2-Fluorophenyl)(pyridin-2-ylamino)methyl)-6-(hydroxymethyl)-3-methoxy-4H-pyran-4-one]",activity in the thiol conjugation assay,[2],inactive
"CCCCCCCCCCCCCCCC(=O)NCCCOCCOCCOCCCNC(=S)Nc1ccc(-c2c3ccc(=O)cc-3oc3cc(O)ccc23)c(C(=O)O)c1 [Compound S4, 2-(6-Hydroxy-3-oxoi-3H-xanthen-9-yl)-5-(3-(15-oxo-4,7,10-trioxa-14-azatriacontyl)thioureido)benzoic Acid]",Kd,[10],0.028 µM
O=c1cc(CO)occ1O [kojic acid],pKa,[11],7.9
"CCCCCCCCCCCCCCCC(=O)O [palmitic acid, reference compound]",Inhibition of the CPM fluorescence signal increase,[2],inhibited the signal increase in a dose-dependent manner
